pIC50: −log10 of the molar value.
Target: T1, human sAC (Homo sapiens, UniProt Q96PN6)
T1 construct: made in house
T1 sequence (Q96PN6 1-469 limits assumed): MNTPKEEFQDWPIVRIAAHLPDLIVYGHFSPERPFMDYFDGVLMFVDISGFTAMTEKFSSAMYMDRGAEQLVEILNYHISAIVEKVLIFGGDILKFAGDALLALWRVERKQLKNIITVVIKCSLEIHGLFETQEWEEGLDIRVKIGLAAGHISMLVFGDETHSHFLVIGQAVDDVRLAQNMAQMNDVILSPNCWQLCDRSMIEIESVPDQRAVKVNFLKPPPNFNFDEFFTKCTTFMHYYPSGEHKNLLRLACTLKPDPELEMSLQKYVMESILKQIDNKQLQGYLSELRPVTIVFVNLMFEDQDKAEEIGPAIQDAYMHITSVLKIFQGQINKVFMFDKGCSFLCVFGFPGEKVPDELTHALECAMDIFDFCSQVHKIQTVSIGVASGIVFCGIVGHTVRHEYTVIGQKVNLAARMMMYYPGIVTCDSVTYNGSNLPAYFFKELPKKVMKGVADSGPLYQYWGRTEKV
Assay: in vitro adenylyl cyclase assay with purified human sAC protein (cAMP by Correlate-EIA)
Assay type: biochemical
Details: 100 μM of compound; BASAL human sAC in vitro activity
Method: Purified human sAC protein was used in an in vitro adenylyl cyclase assay. Purification of the protein is described in detail in Litvin et al. 2003. (J. Biol. Chem. 278:15922-15926). This paper also describes the general conditions for a sAC cyclase assay. The specific conditions for the in vitro assay are as follows.
For basal sAC activity, an assay master mixture with sufficient volume for all reactions was prepared containing:
100 U/ml creatine phosphokinase (CPK)
An aliquot of the master mixture was added to the purified human sAC. The assay mixture also included the indicated concentration of KH compound, or an equivalent volume of vehicle (i.e., DMSO) as control. The reaction was started by adding 5 mM ATP (total assay volume=100 μL). The reaction mixture was incubated at 30° C. for 30 minutes and then stopped by adding 100 μl […]. Stimulated assay conditions involve adding 40 mM bicarbonate and 5 mM CaCl2 to the above master mixture.
Cyclic AMP levels were measured in each sample using the Correlate-EIA Direct Cyclic AMP assay kit from Assay Designs as per manufacturers instructions.

Row | Activation, printed in column % Inhibition (100 μM), hsACt-Basal | Compound
1 | Activation 30% | C/C(=N/NC(=O)CSc1nc2ccccc2[nH]1)c1cccnc1 [KH7.116]

Same assay, conditions: 100 μM of compound; BASAL human sAC in vitro activity; 100 µM

Row | % Inhibition (100 μM), hsACt-Basal [%] | Compound
2 | 70 | Cn1c(SCC(=O)N/N=C/c2cc(Br)ccc2O)nc2ccccc21 [KH7.139]

Same assay, conditions: 100 μM of compound; BASAL human sAC in vitro activity; read-out: % Inhibition (100 μM), hsACt-Basal

Row | Compound | inhibition at 100 µM [%]
3 | CCOc1ccc(/C=N/NC(=O)CSc2nc3ccccc3[nH]2)cc1OC [KH7.145] | 0
4 | O=C(CSc1nc2ccccc2[nH]1)N/N=C/c1c(Cl)cccc1Cl [KH7.130] | 50
5 | C/C(=N/NC(=O)CSc1nc2ccccc2[nH]1)c1ccc(F)cc1 [KH7.118] | 0
6 | O=C(CSc1nc2ccccc2[nH]1)N/N=C/c1ccc(C(F)(F)F)cc1 [KH7.150] | 0
7 | O=C(CSc1nc2ccccc2[nH]1)N/N=C/c1ccc(Cl)c([N+](=O)[O-])c1 [KH7.146] | 50
8 | O=C(CSc1nc2ccccc2[nH]1)N/N=C/c1ccccc1C(=O)O [KH7.112] | 0
9 | Cc1ccc(Cn2c(SCC(=O)N/N=C/c3ccncc3)nc3ccccc32)cc1 [KH7.142] | 0
10 | O=C(CSc1nc2ccccc2[nH]1)N/N=C/c1cccc(Cl)c1 [KH7.128] | 50

Next, values leading:

Row | inhibition at 100 µM [%] | Compound
11 | 80 | C/C(=N/NC(=O)CSc1nc2ccccc2[nH]1)c1ccc(Cl)c(Cl)c1 [KH7.115]
12 | 90 | O=C(CSc1nc2ccccc2[nH]1)N/N=C/c1ccccc1I [KH7.121]
13 | 80 | CCN(CC)c1ccc(/C=N/NC(=O)CSc2nc3ccccc3[nH]2)cc1 [KH7.136]
14 | 90 | O=C(CSc1nc2ccccc2[nH]1)N/N=C/c1cc(Br)cc(Br)c1O [KH7.149]
15 | 80 | C/C(=N/NC(=O)CSc1nc2ccccc2[nH]1)c1ccc(-c2ccccc2)cc1 [KH7.113]
16 | 60 | O=C(CSc1nc2ccccc2[nH]1)N/N=C/c1cc(Br)ccc1F [KH7.152]
17 | 75 | Cn1c(SCC(=O)N/N=C/c2cc(Br)ccc2O)nc2ccccc21 [KH7.139]
18 | 60 | O=C(CSc1nc2ccccc2[nH]1)N/N=C/c1ccccc1Cl [KH7.133]
19 | 75 | COc1ccc(/C=N/NC(=O)CSc2nc3ccccc3[nH]2)cc1Br [KH7.151]

Same assay, conditions: 100 μM of compound; stimulated human sAC in vitro activity

Row | Activation, printed in column % Inhibition (100 μM), hsACt-Stim. | Compound
20 | Activation 50% | C/C(=N/NC(=O)CSc1nc2ccccc2[nH]1)c1cccnc1 [KH7.116]

Same assay, conditions: 100 μM of compound; stimulated human sAC in vitro activity; 100 µM

Row | % Inhibition (100 μM), hsACt-Stim. [%] | Compound
21 | 70 | Cn1c(SCC(=O)N/N=C/c2cc(Br)ccc2O)nc2ccccc21 [KH7.139]

Same assay, conditions: 100 μM of compound; stimulated human sAC in vitro activity; read-out: % Inhibition (100 μM), hsACt-Stim.

Row | Compound | inhibition at 100 µM [%]
22 | CCOc1ccc(/C=N/NC(=O)CSc2nc3ccccc3[nH]2)cc1OC [KH7.145] | 20
23 | O=C(CSc1nc2ccccc2[nH]1)N/N=C/c1c(Cl)cccc1Cl [KH7.130] | 50
24 | C/C(=N/NC(=O)CSc1nc2ccccc2[nH]1)c1ccc(F)cc1 [KH7.118] | 0
25 | O=C(CSc1nc2ccccc2[nH]1)N/N=C/c1ccc(C(F)(F)F)cc1 [KH7.150] | 0
26 | O=C(CSc1nc2ccccc2[nH]1)N/N=C/c1ccc(Cl)c([N+](=O)[O-])c1 [KH7.146] | 40
27 | O=C(CSc1nc2ccccc2[nH]1)N/N=C/c1ccccc1C(=O)O [KH7.112] | 0
28 | O=C(CSc1nc2ccccc2[nH]1)N/N=C/c1cccc(Cl)c1 [KH7.128] | 50

Other lines, results leading:

Row | inhibition at 100 µM [%] | Compound
29 | 80 | C/C(=N/NC(=O)CSc1nc2ccccc2[nH]1)c1ccc(Cl)c(Cl)c1 [KH7.115]
30 | 90 | O=C(CSc1nc2ccccc2[nH]1)N/N=C/c1ccccc1I [KH7.121]
31 | 40 | CCN(CC)c1ccc(/C=N/NC(=O)CSc2nc3ccccc3[nH]2)cc1 [KH7.136]
32 | 85 | O=C(CSc1nc2ccccc2[nH]1)N/N=C/c1cc(Br)cc(Br)c1O [KH7.149]
33 | 80 | C/C(=N/NC(=O)CSc1nc2ccccc2[nH]1)c1ccc(-c2ccccc2)cc1 [KH7.113]
34 | 75 | Cn1c(SCC(=O)N/N=C/c2cc(Br)ccc2O)nc2ccccc21 [KH7.139]
35 | 50 | COc1ccc(/C=N/NC(=O)CSc2nc3ccccc3[nH]2)cc1Br [KH7.151]

Same assay, conditions: @ 100; stimulated human sAC in vitro activity

Row | Activation in words, printed in column % Inhibition (100 μM), hsACt-Stim. | Compound
36 | Activation @ 100 | Cc1ccc(Cn2c(SCC(=O)N/N=C/c3ccncc3)nc3ccccc32)cc1 [KH7.142]

Same assay, conditions: BASAL activity of human sAC in vitro (just Mg-ATP, no calcium or bicarbonate); read-out: hsACt-Basal approximate IC50 (or the dose range where the IC50 should lie)

Row | Compound | pIC50
37 | CCOc1ccc(/C=N/NC(=O)CSc2nc3ccccc3[nH]2)cc1OC [KH7.145] | < 4.00
38 | C/C(=N/NC(=O)CSc1nc2ccccc2[nH]1)c1ccc(F)cc1 [KH7.118] | < 4.00
39 | O=C(CSc1nc2ccccc2[nH]1)N/N=C/c1ccc(C(F)(F)F)cc1 [KH7.150] | < 4.00
40 | O=C(CSc1nc2ccccc2[nH]1)N/N=C/c1ccccc1C(=O)O [KH7.112] | < 4.00
41 | Cc1ccc(Cn2c(SCC(=O)N/N=C/c3ccncc3)nc3ccccc32)cc1 [KH7.142] | < 4.00

The next lines start with the values.

Row | pIC50 | Compound
42 | 4.00 to 5.00 | C/C(=N/NC(=O)CSc1nc2ccccc2[nH]1)c1ccc(Cl)c(Cl)c1 [KH7.115]
43 | 4.00 to 5.00 | O=C(CSc1nc2ccccc2[nH]1)N/N=C/c1ccccc1I [KH7.121]
44 | 4.00 to 5.00 | CCN(CC)c1ccc(/C=N/NC(=O)CSc2nc3ccccc3[nH]2)cc1 [KH7.136]
45 | 6.00 | O=C(CSc1nc2ccccc2[nH]1)N/N=C/c1cc(Br)cc(Br)c1O [KH7.149]
46 | 4.00 to 5.00 | C/C(=N/NC(=O)CSc1nc2ccccc2[nH]1)c1ccc(-c2ccccc2)cc1 [KH7.113]
47 | 4.00 to 5.00 | O=C(CSc1nc2ccccc2[nH]1)N/N=C/c1cc(Br)ccc1F [KH7.152]
48 | 5.00 to 6.00 | Cn1c(SCC(=O)N/N=C/c2cc(Br)ccc2O)nc2ccccc21 [KH7.139]
49 | 4.00 to 5.00 | O=C(CSc1nc2ccccc2[nH]1)N/N=C/c1ccccc1Cl [KH7.133]
50 | 4.00 to 5.00 | COc1ccc(/C=N/NC(=O)CSc2nc3ccccc3[nH]2)cc1Br [KH7.151]

Same assay, conditions: stimulated activity of human sAC in vitro (calcium and bicarbonate stimulated); read-out: hsACt-Stim. approximate IC50 (or the dose range where the IC50 should lie)

Row | Compound | pIC50
51 | CCOc1ccc(/C=N/NC(=O)CSc2nc3ccccc3[nH]2)cc1OC [KH7.145] | < 4.00
52 | C/C(=N/NC(=O)CSc1nc2ccccc2[nH]1)c1ccc(F)cc1 [KH7.118] | < 4.00
53 | O=C(CSc1nc2ccccc2[nH]1)N/N=C/c1ccc(C(F)(F)F)cc1 [KH7.150] | < 4.00
54 | O=C(CSc1nc2ccccc2[nH]1)N/N=C/c1ccc(Cl)c([N+](=O)[O-])c1 [KH7.146] | < 4.00
55 | O=C(CSc1nc2ccccc2[nH]1)N/N=C/c1ccccc1C(=O)O [KH7.112] | < 4.00
56 | Cc1ccc(Cn2c(SCC(=O)N/N=C/c3ccncc3)nc3ccccc32)cc1 [KH7.142] | 5.00 to 6.00
57 | C/C(=N/NC(=O)CSc1nc2ccccc2[nH]1)c1cccnc1 [KH7.116] | 6.00 to 7.00

Results, then the compound that gave them:

Row | pIC50 | Compound
58 | 4.00 to 5.00 | C/C(=N/NC(=O)CSc1nc2ccccc2[nH]1)c1ccc(Cl)c(Cl)c1 [KH7.115]
59 | 4.00 to 5.00 | O=C(CSc1nc2ccccc2[nH]1)N/N=C/c1ccccc1I [KH7.121]
60 | < 4.00 | CCN(CC)c1ccc(/C=N/NC(=O)CSc2nc3ccccc3[nH]2)cc1 [KH7.136]
61 | 6.00 | O=C(CSc1nc2ccccc2[nH]1)N/N=C/c1cc(Br)cc(Br)c1O [KH7.149]
62 | 4.00 to 5.00 | C/C(=N/NC(=O)CSc1nc2ccccc2[nH]1)c1ccc(-c2ccccc2)cc1 [KH7.113]
63 | 5.00 to 6.00 | Cn1c(SCC(=O)N/N=C/c2cc(Br)ccc2O)nc2ccccc21 [KH7.139]
64 | 4.00 to 5.00 | COc1ccc(/C=N/NC(=O)CSc2nc3ccccc3[nH]2)cc1Br [KH7.151]
